Measured values from patent US11723948B2, “Method for treating and prognosing cancer” (INSERM (INSTITUT NATIONAL DE LA SANTE ET DE LA RECHERCHE …, priority 2015, dated 2023).

How the values were obtained:
PCTC #1 = test: ELISA of global DNA methylation (5-methylcytosine); assay type: cell-based, human; settings: PCTC #1 treated during 30 days
Description: DNA was extracted by using the QiaAmp DNA mini Kit (Qiagen, France). Next, global DNA methylation was estimated by quantifying the presence of 5-methylcytosine using Methylamp Global DNA methylation Quantification kit (Euromedex-Epigentek, France) according to the manufacturers's instructions.
The analysis of all interactions being impossible, we postulated that if P1 inhibited a large number of DNMT3A/D3A-BP interactions, an hypomethylation phenotype would be observable. To observe the putative P1-induced DNA hypomethylation, PCTC #1 were treated during 30 days with P1 (data not shown). Other DNMT inhibitors (5-aza-2-deoxycytidine (5-aza), theaflavin 3,3 digallate (a DNMT3A inhibitor, hereafter called TFD), or peptides (UP peptide, a peptide inhibiting the DNMT1/PCNA/UHRF1 interactions)) were also used as control conditions.

[1] = test system: primary cultured tumor cells (PCTC) from GBM; test: Migration assay, scratch test; assay type: cell-based, human; settings: 24 hours, mitomycin C pre-treatment
Method: Cell migration assay was performed using a scratch technique. Cells were plated in 6-well plates at 80-90%, and were treated with 10 μg/ml mitomycin C (Sigma, France) for 2 hours (in order to remove the influence of cell proliferation). Cells were then scratched. Cell migration was monitored by microscopy. The images acquired for each sample were analyzed quantitatively. For each image, distances between one side of scratch and the other were measured. By comparing the images from time 0 to the last time point (24 hours), we obtain the distance of each scratch closure on the basis of the distances that are measured.
Impact of the P1-induced disruption of the DNMT3A/ISGF3γ interactions on migration capability was next estimated by performing a scratch test assay.

[2] = test system: primary cultured tumor cells (PCTC) from GBM; test: Proliferation assay, doubling time; assay type: cell-based, human; settings: counted every 24 h over 120 h
Method: Doubling time (i.e. the period of time required for a quantity to double in size) was calculated by using the Doubling Time Online Calculator website (Roth V. 2006, http://www.doubling-time.com/compute.php) and counting the proliferation of […] over 120 hours. Cell number was determined, every 24 h over 120 h, using the Countess® Automated Cell Counter (Life Technologies, France).
To estimate the impact of the P1-induced disruption of DNMT3A/ISGF3γ interactions on proliferation, we calculated the doubling time.

[3] = test system: primary cultured tumor cells (PCTC) from GBM; test: Temozolomide+irradiation-induced cell death (trypan blue); assay type: cell-based, human; settings: temozolomide 25 μM and irradiation 2 Gy
Method: Percentages of cell death were evaluated by using a Trypan Blue Stain 0.4%, and the Countess® Automated Cell Counter (Life Technologies, France). Cell death was induced using temozolomide (25 μM) and irradiation (2 Gy) such as previously described.
To evaluate the impact of the P1-induced disruption of the DNMT3A/ISGF3γ interactions on the sensitivity of apoptosis induced by a therapeutic treatment, we measured the percentage of temozolomide+irradiation-induced cell death since temozolomide (TMZ) and irradiation are conjugated in anti-GBM treatment [Cheray M et al., 2013 and Louis D et al., 2007]. […] Thus, we conclude that P1 acts as a sensitizer of the temozolomide+irradiation-induced cell death.

[4] = test system: primary cultured tumor cells (PCTC) from GBM; test: Collagen-based cell invasion assay; set-up: species or system human; settings: 72 h incubation
Method: All of the procedures were followed according to the manufacturer's instructions (QCM 24-Well Collagen-Based Cell Invasion Assay, Millipore, France). In brief, 200 μl serum-free medium containing 2×10^5 cells were seeded into the invasion chamber and placed into the 24 well plate containing 500 μl complete medium. After 72 h incubation at 37° C., media was removed from the chamber, and cells were stained by putting the chamber in staining solution for 20 min at room temperature. Non-invaded cells were carefully removed from the top-side of the chamber. Stained chamber was inserted into a clean well containing 200 μl of extraction buffer for 15 min at room temperature. 100 μl extracted stained solution from the chamber was transferred into the 96 well plate and optical density was measured at 560 nm with a spectrophotometer.

[5] = biological target: T1, DNMT3A/ISGF3γ interaction (Homo sapiens, UniProt Q00978); test: Competitive pull-down assay of the DNMT3A/ISGF3γ interaction; assay type: binding; settings: for inhibition of the DNMT3A/ISGF3γ interaction: peptides pre-incubated 1 h at 37° C., FIG. 2A
T1 construct: GST
T1 sequence (Q00978 1-393): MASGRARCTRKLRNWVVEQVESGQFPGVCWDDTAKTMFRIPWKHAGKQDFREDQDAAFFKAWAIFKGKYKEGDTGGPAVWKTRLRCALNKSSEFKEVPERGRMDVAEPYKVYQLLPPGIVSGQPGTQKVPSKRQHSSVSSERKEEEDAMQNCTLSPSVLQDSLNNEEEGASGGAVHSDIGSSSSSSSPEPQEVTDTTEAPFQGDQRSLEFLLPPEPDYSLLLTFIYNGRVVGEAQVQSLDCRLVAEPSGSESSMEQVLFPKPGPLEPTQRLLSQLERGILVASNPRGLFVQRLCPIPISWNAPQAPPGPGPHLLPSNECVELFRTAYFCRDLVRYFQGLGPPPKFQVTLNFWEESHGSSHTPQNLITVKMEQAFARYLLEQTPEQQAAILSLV
Method: Pull-down assays were performed by using the GST/His Tagged-Protein Interaction Pull-Down Kits (Thermo Scientific, France). Briefly, 100 μg of bait protein were immobilized on column via an incubation at 4° C. for 1 h with gentle mixing. After washing, 1 μg of prey protein was added for 1 h at 4° C. with gentle rocking motion on a rotating platform. After washes and elution, the “bait-prey” interaction was analyzed by SDS-PAGE and Western blot methods. Competitive pull-down experimentations were realized by pre-incubating considered peptides for 1 h at 37° C.
In brief, proteins were size fractionated by sodium dodecyl sulfate-polyacrylamide gel electrophoresis. Proteins were transferred onto nitrocellulose or PVDF membrane. Saturation and blotting were realized by using SNAP I.™ Protein Detection System (Millipore, France). The detection of proteins was performed using ECL™ (Amersham Biosciences, France) and/or SuperSignal west femto Maximum Sensitivity (Thermo Scientific, France) chemilumenescence reagents. The detection of proteins was performed using the FusionX7 Imager (Fisher Scientific, France).

DNMT3A/GATA1 interaction = biological target: T2, DNMT3A/GATA1 interaction (Homo sapiens, UniProt P15976); test: P-LISA in PCTC #1, DNMT3A/GATA1; assay type: cell-based
T2 construct: endogenous in cells; host or cells: PCTC #1 (primary cultured glioblastoma tumor cells)
T2 sequence (P15976 whole entry): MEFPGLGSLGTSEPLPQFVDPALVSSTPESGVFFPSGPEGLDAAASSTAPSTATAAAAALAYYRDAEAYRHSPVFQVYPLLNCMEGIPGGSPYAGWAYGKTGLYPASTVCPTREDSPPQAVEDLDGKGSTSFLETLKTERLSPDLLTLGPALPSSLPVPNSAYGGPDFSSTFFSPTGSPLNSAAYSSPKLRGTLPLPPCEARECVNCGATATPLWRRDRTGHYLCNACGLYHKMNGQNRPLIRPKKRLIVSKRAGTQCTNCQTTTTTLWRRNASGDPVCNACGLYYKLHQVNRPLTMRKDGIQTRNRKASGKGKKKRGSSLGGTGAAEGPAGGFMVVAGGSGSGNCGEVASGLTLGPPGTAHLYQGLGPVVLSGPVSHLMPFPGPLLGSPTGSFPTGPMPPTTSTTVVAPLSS
Method: (§1) Cells were cultured for 24 h on cover slip. Cells were then fixed with 4% paraformaldehyde in PBS pH7.4 for 15 min at room temperature. Permeabilization is performed with PBS containing 0.5% Triton X-100 for 20 min at room temperature. Blocking, staining, hybridization, ligation, amplification and detection steps were realized according to manufacturer's instructions (Olink Bioscience, Sweden). All incubations were performed in a humidity chamber. Amplification and detection steps were performed in dark room. Fluorescence was visualized by using the Axiovert 200M microscopy system (Zeiss, Le Pecq, France) with ApoTome module (X63 and numerial aperture 1.4). Preparations were mounted by using ProLong Gold antifade reagent with DAPI (Life Technologies, France). Pictures acquisition was realized in structured illumination microscopy. […] Finally, the images were analyzed by using the freeware “BlobFinder” available for download from www.cb.uu.se/˜amin/BlobFinder. […]
(§2) For electroporation, NLS sequence was added to peptides. […] Electroporation efficiency for each cell line was initially determined by flow cytometry by uptake of the fluorescent dye, lucifer yellow (Sigma, France). […]
(§3) P1 was designed to inhibit the DNMT3A/ISGF3γ interactions. […] To investigate this point, we analyzed the effect of P1 on the DNMT3A/D3A-BP interactions of interest. […]

MGMT = test: qMSP of MGMT methylation; assay type: cell-based, human; settings: cells treated with peptide
Description: In glioma, MGMT methylation is associated with a good responsive of anti-glioma treatment including TMZ and irradiation [Esteller M et al., 2000 and Hegi M et al., 2005].

[6] = test system: PCTC-GBM glioma cells having high level of DNMT3A/ISGF3γ interactions; test: Established subcutaneous glioma tumors in swiss nude mice; assay type: in vivo; settings: treatment from tumor volume 100 mm^3, after 3 weeks of treatment; FIG. 3B
Method: A. Design of the experiment. […] Then, mice were treated with indicated treatment. D: day, w: week, it: intra-tumoral, ip: Intraperitoneal.
B. Graph illustrates the impact of the 4 considered treatments on tumor weight of established tumors. Open circles represent mice. Black circles represent the average±standard deviation obtained for each treatment. p values were obtained by performing a t test.
Cultured cells were harvested by trypsinization, washed and resuspended in saline buffer. Cell suspensions were injected s.c. as 2.106 cells in 0.05 ml of PBS with equal volume of matrigel matrix (Becton Dickinson, France) in the flank of 7/8-week-old Nude NMRI-nu female mice (Janvier, France). After tumor establishment, mice were treated with temozolomide and/or peptides via intra-tumor injection (it). To obtain tumor weigh, each tumor was surgically removed and is weighed. All experimental procedures using animals were realized in accordance with the guidelines of Institutional Animal Care and the French National Committee of Ethics.
Standard anti-GBM treatment using temozolomide as chemotherapeutic agent, we next investigated the effect of a treatment associating P1 peptide with TMZ in a swiss nude mice model of established tumors.

DNMT3A/AP2γ interaction = test: P-LISA in PCTC #1, DNMT3A/AP2γ; assay type: cell-based, human
Method: as §1, §2, §3

DNMT3A/HDAC1 interaction = biological target: T3, DNMT3A/HDAC1 interaction (Homo sapiens, UniProt Q13547); test: P-LISA in PCTC #1, DNMT3A/HDAC1; assay type: cell-based
T3 construct: endogenous in cells; host or cells: PCTC #1 (primary cultured glioblastoma tumor cells)
T3 sequence (Q13547 whole entry): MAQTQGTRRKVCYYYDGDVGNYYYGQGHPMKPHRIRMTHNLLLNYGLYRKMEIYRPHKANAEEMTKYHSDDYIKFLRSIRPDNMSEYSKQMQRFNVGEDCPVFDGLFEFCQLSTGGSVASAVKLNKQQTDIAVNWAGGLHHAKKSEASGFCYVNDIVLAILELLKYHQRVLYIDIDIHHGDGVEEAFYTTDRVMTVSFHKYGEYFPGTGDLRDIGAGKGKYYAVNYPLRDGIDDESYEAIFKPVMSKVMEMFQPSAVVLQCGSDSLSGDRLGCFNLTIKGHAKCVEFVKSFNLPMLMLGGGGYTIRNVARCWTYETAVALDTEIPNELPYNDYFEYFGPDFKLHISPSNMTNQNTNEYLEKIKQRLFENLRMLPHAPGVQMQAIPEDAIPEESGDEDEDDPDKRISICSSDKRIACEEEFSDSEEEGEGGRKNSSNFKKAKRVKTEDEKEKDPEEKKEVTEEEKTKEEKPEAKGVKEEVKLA
Method: as §1, §2, §3

[7] = biological target: T4, DNMT3A/ISGF3γ interactions (Homo sapiens, UniProt Q00978); test: Proximity Ligation In Situ Assay (P-LISA) in PCTC #1, DNMT3A/ISGF3γ; assay type: cell-based; settings: PCTC #1, P-LISA 12 hr after electroporation of peptide
T4 construct: we used a PCTC (named PCTC #1); endogenous in cells; host or cells: PCTC #1 (primary cultured glioblastoma tumor cells)
T4 sequence (Q00978 1-393): T1 sequence (Q00978 1-393)
Method: Cells were cultured for 24 h on cover slip. Cells were then fixed with 4% paraformaldehyde in PBS pH7.4 for 15 min at room temperature. Permeabilization is performed with PBS containing 0.5% Triton X-100 for 20 min at room temperature. Blocking, staining, hybridization, ligation, amplification and detection steps were realized according to manufacturer's instructions (Olink Bioscience, Sweden). All incubations were performed in a humidity chamber. Amplification and detection steps were performed in dark room. Fluorescence was visualized by using the Axiovert 200M microscopy system (Zeiss, Le Pecq, France) with ApoTome module (X63 and numerial aperture 1.4). Preparations were mounted by using ProLong Gold antifade reagent with DAPI (Life Technologies, France). Pictures acquisition was realized in structured illumination microscopy. After decovolving (3.5 Huygens Essential software (SVI)), 3D view was obtained by using Amira.4.1.1 program. Finally, the images were analyzed by using the freeware “BlobFinder” available for download from www.cb.uu.se/˜amin/BlobFinder. Thus, we obtained either number of signals per nuclei since nuclei can be automatically identified.
as §2

MCF-7 cells = settings: non-invasive breast cancer cell line MCF-7; cited from earlier work
ZR-75-1 = settings: non-invasive breast cancer cell line ZR-75-1; cited from earlier work

| Compound | global level of 5-methylcytosine (PCTC #1) | cell migration [1] | doubling time of cells [2] | percentage of temozolomide+irradiation-induced cell death [3] | cell invasion [4] | inhibition of the DNMT3A/ISGF3γ interaction [5] | integrity of the DNMT3A/GATA1 interaction (DNMT3A/GATA1 interaction) | methylation level of MGMT (MGMT) | tumor growth (tumor weight/volume) of established tumors [6] | integrity of the DNMT3A/AP2γ interaction (DNMT3A/AP2γ interaction) | integrity of the DNMT3A/HDAC1 interaction (DNMT3A/HDAC1 interaction) | red dots representing the DNMT3A/ISGF3γ interactions [7] | DNMT3A/ISGF3γ interaction with increasing peptide concentration ([5]; increasing concentration of peptide, FIG. 2B) | percentage of cell death compared with the other treatment ([3]; P1 versus TDF) | invasiveness (MCF-7 cells) | invasiveness (ZR-75-1) |
| --- | --- | --- | --- | --- | --- | --- | --- | --- | --- | --- | --- | --- | --- | --- | --- | --- |
| O=C(O[C@@H]1Cc2c(O)cc(O)cc2O[C@@H]1c1cc(O)c(=O)c2c(O)c(O)cc([C@H]3Oc4cc(O)cc(O)c4C[C@H]3OC(=O)c3cc(O)c(O)c(O)c3)c2c1)c1cc(O)c(O)c(O)c1 [TFD, theaflavin 3,3 digallate, reference compound] | decreased the global level of DNA methylation | had no effect on cell migration | no effect | increased | promoted the cell invasion | – | – | – | – | – | – | – | – | – | – | – |
| RPMPRLTAQAGAPYYI (Synthetic P1mut) [P1^mut, mutated P1 peptide, reference compound] | – | – | – | – | – | does not inhibit the DNMT3A/ISGF3γ interaction | – | – | – | – | – | – | – | – | – | – |
| RPMPRLTFQAGDPYYI (Synthetic P1) | had not effect | decreased cell migration | no effect | increased | unmodified the cell invasion characteristic | inhibited the DNMT3A/ISGF3γ interaction | no effect | remains unchanged | no statistical difference | no effect | no effect | decreased | decreased | higher than the one obtained with TDF | – | – |
| Nc1ncn([C@H]2C[C@H](O)[C@@H](CO)O2)c(=O)n1 [5-aza, 5-aza-2-deoxycytidine] | decreased the global level of DNA methylation | – | – | – | – | – | – | – | – | – | – | – | – | – | increased the invasiveness | increased the invasiveness |
